In patent US12473294B2, “Selective modulators of mutant LRRK2 proteolysis and associated methods of use” (Arvinas Operations, Inc., priority 2020, dated 2025):

What was measured:
G2019S LRRK2 = molecular target: T1, G2019S LRRK2 (Homo sapiens, UniProt Q5S007, G2019S); experiment: LRRK2 degradation HiBit assay, G2019S LRRK2 tagged with a HiBit tag expressed in HEK293 cells; format: cell-based; settings: 24 hours compound incubation; for Dmax: HEK293, HEK293 cells; for DC50: HEK293 cells
T1 construct: expressed in transfected cells; host or cells: HEK293 (ATCC CRL-1573)
T1 sequence (Q5S007 whole entry G2019S): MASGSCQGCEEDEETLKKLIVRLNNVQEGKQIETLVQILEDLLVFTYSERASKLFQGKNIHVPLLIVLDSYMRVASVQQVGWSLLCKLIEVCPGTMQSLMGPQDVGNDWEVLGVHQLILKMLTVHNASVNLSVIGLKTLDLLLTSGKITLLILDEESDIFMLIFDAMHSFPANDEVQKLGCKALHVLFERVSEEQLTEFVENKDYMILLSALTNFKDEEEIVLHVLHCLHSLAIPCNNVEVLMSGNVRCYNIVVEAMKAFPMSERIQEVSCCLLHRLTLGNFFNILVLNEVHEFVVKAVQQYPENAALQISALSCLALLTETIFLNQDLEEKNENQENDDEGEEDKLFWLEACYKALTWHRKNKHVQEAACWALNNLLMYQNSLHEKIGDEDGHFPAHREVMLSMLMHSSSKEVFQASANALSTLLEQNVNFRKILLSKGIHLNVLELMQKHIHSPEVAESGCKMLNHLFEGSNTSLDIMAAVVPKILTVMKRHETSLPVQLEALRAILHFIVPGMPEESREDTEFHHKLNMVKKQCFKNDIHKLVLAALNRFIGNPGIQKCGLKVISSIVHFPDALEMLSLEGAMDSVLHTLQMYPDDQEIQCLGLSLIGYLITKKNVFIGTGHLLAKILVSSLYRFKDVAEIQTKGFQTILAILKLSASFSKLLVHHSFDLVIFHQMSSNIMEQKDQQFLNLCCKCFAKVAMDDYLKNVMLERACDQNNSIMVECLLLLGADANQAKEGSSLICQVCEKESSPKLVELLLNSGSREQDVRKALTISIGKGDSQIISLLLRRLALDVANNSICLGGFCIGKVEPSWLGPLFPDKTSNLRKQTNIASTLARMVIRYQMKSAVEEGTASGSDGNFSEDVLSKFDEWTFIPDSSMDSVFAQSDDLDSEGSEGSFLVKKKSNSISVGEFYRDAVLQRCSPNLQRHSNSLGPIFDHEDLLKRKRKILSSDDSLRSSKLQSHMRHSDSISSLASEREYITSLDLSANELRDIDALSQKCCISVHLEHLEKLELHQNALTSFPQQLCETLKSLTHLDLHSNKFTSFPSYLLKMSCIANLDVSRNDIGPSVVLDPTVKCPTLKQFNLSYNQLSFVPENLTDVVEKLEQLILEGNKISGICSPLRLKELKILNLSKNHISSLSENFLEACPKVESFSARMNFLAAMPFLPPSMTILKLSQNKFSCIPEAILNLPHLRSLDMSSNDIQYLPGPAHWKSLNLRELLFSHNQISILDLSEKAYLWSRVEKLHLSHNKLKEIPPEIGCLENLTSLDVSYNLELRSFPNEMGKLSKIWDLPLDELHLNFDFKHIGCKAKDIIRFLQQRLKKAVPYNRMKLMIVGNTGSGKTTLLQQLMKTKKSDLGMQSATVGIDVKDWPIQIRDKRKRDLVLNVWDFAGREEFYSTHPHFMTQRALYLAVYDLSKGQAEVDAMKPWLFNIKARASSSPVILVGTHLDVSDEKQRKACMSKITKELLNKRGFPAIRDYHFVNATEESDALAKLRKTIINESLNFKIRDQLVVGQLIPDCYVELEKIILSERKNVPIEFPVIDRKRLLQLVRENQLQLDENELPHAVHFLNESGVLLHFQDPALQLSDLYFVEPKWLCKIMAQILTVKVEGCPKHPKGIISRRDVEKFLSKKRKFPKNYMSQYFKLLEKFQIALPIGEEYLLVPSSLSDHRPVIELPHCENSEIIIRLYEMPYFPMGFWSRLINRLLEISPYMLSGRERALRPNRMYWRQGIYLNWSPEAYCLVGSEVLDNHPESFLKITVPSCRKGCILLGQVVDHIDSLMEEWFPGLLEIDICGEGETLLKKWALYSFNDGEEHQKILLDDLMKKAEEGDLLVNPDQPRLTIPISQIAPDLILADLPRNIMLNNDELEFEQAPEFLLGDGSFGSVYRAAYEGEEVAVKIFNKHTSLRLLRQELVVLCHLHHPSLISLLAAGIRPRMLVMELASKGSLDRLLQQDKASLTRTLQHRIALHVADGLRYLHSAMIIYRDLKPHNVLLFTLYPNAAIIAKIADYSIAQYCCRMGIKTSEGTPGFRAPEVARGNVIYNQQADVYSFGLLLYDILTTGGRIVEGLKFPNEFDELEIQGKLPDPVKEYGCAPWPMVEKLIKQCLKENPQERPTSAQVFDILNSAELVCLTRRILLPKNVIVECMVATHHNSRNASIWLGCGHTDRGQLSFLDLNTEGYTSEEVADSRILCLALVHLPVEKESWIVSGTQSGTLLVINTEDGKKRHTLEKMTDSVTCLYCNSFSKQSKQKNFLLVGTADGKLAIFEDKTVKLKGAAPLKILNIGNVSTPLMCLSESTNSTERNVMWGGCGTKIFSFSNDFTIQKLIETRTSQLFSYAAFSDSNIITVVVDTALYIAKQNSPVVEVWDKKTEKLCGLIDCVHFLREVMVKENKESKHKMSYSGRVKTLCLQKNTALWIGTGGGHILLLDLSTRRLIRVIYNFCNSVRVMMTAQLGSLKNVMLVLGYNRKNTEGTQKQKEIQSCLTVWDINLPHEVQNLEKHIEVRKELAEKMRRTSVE
Procedure: (§1) The assay measures the degradation of wildtype and G2019S LRRK2 tagged with a HiBit tag on the C-terminus of the protein that was expressed from a mammalian expression vector, driven by the ubiquitin promoter in HEK293 cells. Each compound dose-response was repeated on three separate days, on three separate plates each day.
(§2) Plasmid Preparation. Transfection mixes were assembled as follows and incubated for 30 minutes at room temperature. In a 15 mL tube, 5.25 mL Opti-MEM (no additions) was mixed with 17 μL Firefly Luciferase plasmid at 1 μg/μL and 158 μL WT plasmid DNA at 1 μg/μL (175 μg total DNA) were mixed by flicking. In a new 15 mL tube, 5.25 mL OptiMEM was mixed with 17 μL Firefly Luciferase plasmid at 1 μg/μL and 158 μL G2019S plasmid DNA at 1 μg/μL (175 μg total DNA) were mixed by flicking. X-tremeGene HP was mixed thoroughly using a vortex. Next, 175 μL was added to each tube and flicked to mix. Both tubes were left to incubate for 30 minutes at room temperature.
While the transfection mixes were incubating, HEK293 cells acquired from ATCC (ATCC CRL-1573) were harvested with trypsin. Once cells are detached, the cells were resuspended in 12 mL OptiMEM+5% FBS and transferred to a 50 mL tube. The cells were mixed well and counted. Using OptiMEM+5% FBS, the cells were diluted in two 250 mL conical tubes at 0.71×10^6 cells/mL in 70 mL. One tube was labeled “WT” and the other “G2019S”. The WT and G2019S transfection mixes were added dropwise to the corresponding 250 mL tubes. The tubes were mixed first by pipetting then by swirling. The tubes were incubated at room temperature for at least 5 minutes.
(§3) Each tube was swirled before dispensing and after every three plates. Seventy microliters of cells were dispensed with WT or G2019S DNA to seven plates each. Three plates of each were tested with compound plate one (preparation described below) and three plates of each were tested with compound plate two (preparation described below). The first plate from each set served as a “prime” plate and was not used to test compounds. Each plate was incubated in the hood for 10 minutes before placing in the 37° C. incubator for 24 hours.
(§4) Preparation of Compound and Assay Plates. Two compound plates were made using 96 well polypropylene plates. Compounds were made up at 10 mM and were diluted to 1 mM in 30 μL. Each dose response curve included a well of DMSO, as a negative control and for normalization, and a well of 0.5 μM of Exemplary Compound 4 as a positive control. In addition to seven test compounds, each plate also included a dose response of Exemplary Compound 4. The compound plates were spun down along at 1200 rpm for 2 minutes.
(§5) The two compound plates were then mixed and 2 μL was diluted in intermediate plates having 248 μL of Opti-Mem in each well. Next, 10 μL diluted compounds from the intermediate plates were added to each test plate (three WT and three G2019S plates per compound plate for a total of 12 assay plates). The plates were incubated for 24 hours at 37° C.
(§6) All assay plates and all Nano-Glo Dual-Luciferase Reporter Assay System components (except for the DLR substrate) were equilibrated to room temperature. Next, the luciferase buffer was mixed with the lyophilized amber bottle until fully dissolved, and 75 μL of the luciferase mixture was added to each well of each assay plate. The assay plates were incubated for 10 minutes at room temperature with shaking for at least 5 minutes, and then read on a plate reader.
(§7) Developing Plates and Analyzing Data. One milliliter of DLR substrate and 1 mL LgBiT Protein were added to the Stop and Glo buffer, and 75 μL of the mixture was added to each well of each plate. Optically clear seals were added to each plate and each plate was incubated for 20 minutes with shaking for at least 10 minutes, and then read on a plate reader. […]

wildtype LRRK2 = molecular target: T2, wildtype LRRK2 (Homo sapiens, UniProt Q5S007); experiment: LRRK2 degradation HiBit assay, wildtype LRRK2 tagged with a HiBit tag in HEK293 cells; format: cell-based; settings: 24 hours compound incubation; for Dmax: read-out: ** WT Dmax (%); for DC50: read-out: *WT DC50
T2 construct: endogenous in cells; host or cells: HEK293 with HiBit knocked in at the 3' end of the endogenous LRRK2 gene, stably expressing firefly luciferase
T2 sequence (Q5S007 whole entry): as the sequence (Q5S007 whole entry G2019S) above, with S2019G counted along it
Procedure: as §1, with “repeated on two separate days,” for “repeated on three separate days,”
as §2
While the transfection mixes were incubating, HEK293 cells (acquired from ATCC; ATCC CRL-1573) were harvested with trypsin. Once cells are detached, the cells were resuspended in 12 mL OptiMEM+5% FBS and transferred to a 50 mL tube. The cells were mixed well and counted. Using OptiMEM+5% FBS, the cells were diluted in two 250 mL conical tubes at 0.71×10^6 cells/mL in 70 mL. One tube was labeled “WT” and the other “G2019S”. The WT and G2019S transfection mixes were added dropwise to the corresponding 250 mL tubes. The tubes were mixed first by pipetting then by swirling. The tubes were incubated at room temperature for at least 5 minutes.
as §3, §4, §5, §6, §7

| Structure (SMILES) | Dmax (G2019S LRRK2) [%] | DC50 (G2019S LRRK2) [nM] | Dmax (wildtype LRRK2) [%] | DC50 (wildtype LRRK2) [nM] |
| --- | --- | --- | --- | --- |
| CC1=C(C(=O)Nc2ccc3[nH]nc(-c4ccnc(N5CCN(CC6CCN(CC7CCN(c8ccc9c(c8)C(=O)N(C8CCC(=O)NC8=O)C9=O)CC7)CC6)[C@@H](C)C5)c4)c3c2)[C@@H](C)n2nnnc2N1C (single isomer, unassigned) [compound 8] | 50 to 70 | < 10 | 50 to 70 | 10 to 50 |
| CC1=C(C(=O)Nc2ccc3[nH]nc(-c4ccnc(N5CCN(CC6CCN(CC7CCN(c8ccc9c(c8)C(=O)N(C8CCC(=O)NC8=O)C9=O)CC7)CC6)[C@@H](C)C5)c4)c3c2)[C@H](C)n2nnnc2N1C (single isomer, unassigned) [compound 9] | 50 to 70 | 50 to 100 | < 50 | ≥ 100 |
| CC1=C(C(=O)Nc2ccc3[nH]nc(-c4ccnc(N5C[C@@H](C)N(CC6CCN(CC7CCN(c8ccc9c(c8)C(=O)N(C8CCC(=O)NC8=O)C9=O)CC7)CC6)[C@@H](C)C5)c4)c3c2)Cn2nnnc2N1C (stereo partly drawn) [compound 1, N-(3-(2-((3S,5R)-4-((1-((1-(2-(2,6-dioxopiperidin-3-yl)-1,3-dioxoisoindolin-5-yl)piperidin-4-yl)methyl)piperidin-4-yl)methyl)-3,5-dimethylpiperazin-1-yl)pyridin-4-yl)-1H-indazol-5-yl)-4,5-dimethyl-4,7-dihydrotetrazolo[1,5-a]pyrimidine-6-carboxamide] | 50 to 70 | < 10 | 50 to 70 | 10 to 50 |
| CC1=C(C(=O)Nc2ccc3[nH]nc(-c4ccnc(N5C[C@@H](C)N(CCOCCOCCN6CCN(c7ccc8c(c7)C(=O)N(C7CCC(=O)NC7=O)C8=O)CC6)[C@@H](C)C5)c4)c3c2)Cn2nnnc2N1C (stereo partly drawn) [compound 4, N-(3-(2-((3R,5S)-4-(2-(2-(2-(4-(2-(2,6-dioxopiperidin-3-yl)-1,3-dioxoisoindolin-5-yl)piperazin-1-yl)ethoxy)ethoxy)ethyl)-3,5-dimethylpiperazin-1-yl)pyridin-4-yl)-1H-indazol-5-yl)-4,5-dimethyl-4,7-dihydrotetrazolo[1,5-a]pyrimidine-6-carboxamide] |  | ≥ 100 |  | ≥ 100 |
| CC1=C(C(=O)Nc2ccc3[nH]nc(-c4ccnc(N5CCN(CC6CCN(CC7CCN(c8ccc9c(c8)C(=O)N(C8CCC(=O)NC8=O)C9=O)CC7)CC6)[C@@H](C)C5)c4)c3c2)Cn2nnnc2N1C (stereo partly drawn) [compound 10, N-(3-(2-((S)-4-((1-((1-(2-(2,6-dioxopiperidin-3-yl)-1,3-dioxoisoindolin-5-yl)piperidin-4-yl)methyl)piperidin-4-yl)methyl)-3-methylpiperazin-1-yl)pyridin-4-yl)-1H-indazol-5-yl)-4,5-dimethyl-4,7-dihydrotetrazolo[1,5-a]pyrimidine-6-carboxamide] | 50 to 70 | < 10 | 50 to 70 | 10 to 50 |
| CC1=C(C(=O)Nc2ccc3[nH]nc(-c4ccnc(N5CCN(CC6CCN(CC7CCN(c8ccc9c(c8)C(=O)N(C8CCC(=O)NC8=O)C9=O)CC7)CC6)CC5)c4)c3c2)[C@@H](C)n2nnnc2N1C (stereo partly drawn) [compound 11, (7R)-N-(3-(2-(4-((1-((1-(2-(2,6-dioxopiperidin-3-yl)-1,3-dioxoisoindolin-5-yl)piperidin-4-yl)methyl)piperidin-4-yl)methyl)piperazin-1-yl)pyridin-4-yl)-1H-indazol-5-yl)-4,5,7-trimethyl-4,7-dihydrotetrazolo[1,5-a]pyrimidine-6-carboxamide] | < 50 | 10 to 50 | < 50 | 50 to 100 |

Second part, the compound after the results:

| Dmax (G2019S LRRK2) [%] | DC50 (G2019S LRRK2) [nM] | Dmax (wildtype LRRK2) [%] | DC50 (wildtype LRRK2) [nM] | Structure (SMILES) |
| --- | --- | --- | --- | --- |
| 50 to 70 | < 10 | 50 to 70 | 10 to 50 | CC1=C(C(=O)Nc2ccc3[nH]nc(-c4ccnc(N5C[C@@H](C)N(CC6CCN(CC7CCN(c8ccc9c(c8)C(=O)N(C8CCC(=O)NC8=O)C9=O)CC7)CC6)[C@@H](C)C5)c4)c3c2)C(C)n2nnnc2N1C (stereo partly drawn) [compound 2, N-(3-(2-((3S,5R)-4-((1-((1-(2-(2,6-dioxopiperidin-3-yl)-1,3-dioxoisoindolin-5-yl)piperidin-4-yl)methyl)piperidin-4-yl)methyl)-3,5-dimethylpiperazin-1-yl)pyridin-4-yl)-1H-indazol-5-yl)-4,5,7-trimethyl-4,7-dihydrotetrazolo[1,5-a]pyrimidine-6-carboxamide] |
|  | ≥ 100 |  | ≥ 100 | CC1=C(C(=O)Nc2ccc3[nH]nc(-c4ccnc(N5C[C@@H](C)N(CCOCCN6CCN(c7ccc8c(c7)C(=O)N(C7CCC(=O)NC7=O)C8=O)CC6)[C@@H](C)C5)c4)c3c2)Cn2nnnc2N1C (stereo partly drawn) [compound 3, N-(3-(2-((3R,5S)-4-(2-(2-(4-(2-(2,6-dioxopiperidin-3-yl)-1,3-dioxoisoindolin-5-yl)piperazin-1-yl)ethoxy)ethyl)-3,5-dimethylpiperazin-1-yl)pyridin-4-yl)-1H-indazol-5-yl)-4,5-dimethyl-4,7-dihydrotetrazolo[1,5-a]pyrimidine-6-carboxamide] |
| < 50 | ≥ 100 |  | ≥ 100 | CC1=C(C(=O)Nc2ccc3[nH]nc(-c4ccnc(N5C[C@@H](C)N(CCN6CCN(c7ccc8c(c7)C(=O)N(C7CCC(=O)NC7=O)C8=O)CC6)[C@@H](C)C5)c4)c3c2)Cn2nnnc2N1C (stereo partly drawn) [compound 5, N-(3-(2-((3R,5S)-4-(2-(4-(2-(2,6-dioxopiperidin-3-yl)-1,3-dioxoisoindolin-5-yl)piperazin-1-yl)ethyl)-3,5-dimethylpiperazin-1-yl)pyridin-4-yl)-1H-indazol-5-yl)-4,5-dimethyl-4,7-dihydrotetrazolo[1,5-a]pyrimidine-6-carboxamide] |
| < 50 | 10 to 50 | < 50 | ≥ 100 | CC1=C(C(=O)Nc2ccc3[nH]nc(-c4ccnc(N5C[C@@H](C)N(CC6CCN(CC7CCN(c8ccc9c(c8)C(=O)N(C8CCC(=O)NC8=O)C9=O)CC7)CC6)[C@@H](C)C5)c4)c3c2)C(C)(C)n2nnnc2N1C (stereo partly drawn) [compound 6, N-(3-(2-((3S,5R)-4-((1-((1-(2-(2,6-dioxopiperidin-3-yl)-1,3-dioxoisoindolin-5-yl)piperidin-4-yl)methyl)piperidin-4-yl)methyl)-3,5-dimethylpiperazin-1-yl)pyridin-4-yl)-1H-indazol-5-yl)-4,5,7,7-tetramethyl-4,7-dihydrotetrazolo[1,5-a]pyrimidine-6-carboxamide] |
| < 50 | ≥ 100 |  | ≥ 100 | CC1=C(C(=O)Nc2ccc3[nH]nc(-c4ccnc(N5CCN(CC6CCN(CC7CCN(c8ccc9c(c8)C(=O)N(C8CCC(=O)NC8=O)C9=O)CC7)CC6)CC5)c4)c3c2)[C@H](C)n2nnnc2N1C (stereo partly drawn) [compound 12, (7S)-N-(3-(2-(4-((1-((1-(2-(2,6-dioxopiperidin-3-yl)-1,3-dioxoisoindolin-5-yl)piperidin-4-yl)methyl)piperidin-4-yl)methyl)piperazin-1-yl)pyridin-4-yl)-1H-indazol-5-yl)-4,5,7-trimethyl-4,7-dihydrotetrazolo[1,5-a]pyrimidine-6-carboxamide] |
